In US8367069B2, “Cytotoxic T cell defined EGFR peptide and an optimized derivative peptide” (University of Pittsburgh—of the Commonwealth System of …, priority 2008, dated 2013):

Assays:
T2 cells = assay: IFN-γ ELISPOT, CTL recognition of polypeptide pulsed T2 cells; format: cell-based, human; details: T2 cells pulsed with the polypeptide; 10 μg/ml at 37° C.
Description: In vitro stimulation (IVS) was performed using EGFR853-861 (i.e., SEQ ID NO: 1, wherein the residue at position 2 is threonine) or EGFR853-861L (i.e., SEQ ID NO: 1, wherein the residue at position 2 is leucine) to induce cytotoxic T lymphocytes (CTL) using CD8+PBMC from five HLA-A*0201^+ healthy donors and one head and neck squamous cell carcinoma (SCCHN) patient. The resulting EGFR-specific CTL were tested for EGFR853-861 specificity and HLA class I antigen restriction using polypeptide pulsed T2 cells. CTL generated against EGFR853-861 polypeptide recognized T2 cells pulsed with either EGFR853-861 or EGFR853-861L polypeptide, but not T2 cells alone or T2 cells incubated with the HIV Pol476-484 polypeptide (10 μg/ml at 37° C.) (see FIGS. 6A and 6B). […]
PBMCs were isolated by density centrifugation on Ficoll-Paque™ PLUS (GE Healthcare Bio-Science AB; SE-751 84 Uppsala) and used to prepare mature DCs using methods described in the art. […] The stimulated CD8^+ T cells were analyzed for specificity in IFN-γ ELISPOT and ^51Cr release assays at day 21 and then every 7 days thereafter.
The recognition of APCs pulsed with polypeptide (EGFR853-861 or EGFR853-861L) and head and neck tumor cells was assessed by ELISPOT assays specific for hu-IFN-γ. […]

HLA-A*0201 = HLA-A*0201 (Homo sapiens, UniProt P04439, D140Y/D185E/D98H/E176V/E277Q/G131W/G231S/I119V/I121R/I166T/I218V/L300P/L318F/N151K/N90K/P208A/P217A/Q86G/Q94H/R138H/R169H/T345S); details: cited from earlier work
EGFR family = assay: Cross-reactivity of polypeptide-derived CTL; format: cell-based, human
PCI-30 = assay: IFN-γ ELISPOT, stimulated CD8+ T cells against PCI-30 head and neck tumor cells; format: cell-based, human; details: substance added to CTL plus PCI-30 cells
Description: PBMCs were isolated by density centrifugation on Ficoll-Paque™ PLUS (GE Healthcare Bio-Science AB; SE-751 84 Uppsala) and used to prepare mature DCs using methods described in the art. PBMCs were resuspended at 5×10^7/ml in AIM-V medium (Invitrogen) and were incubated for 90 min in 75-cm^2 tissue culture flasks or six-well plates (37° C.; 5% CO2). Non-adherent (T cell-enriched) cells were gently washed out with HBSS and subsequently frozen. The plastic adherent cells were cultured in AIM-V medium supplemented with 1000 units/ml rhGM-CSF and 1000 units/ml rhIL-4. […] The stimulated CD8^+ T cells were analyzed for specificity in IFN-γ ELISPOT and ^51Cr release assays at day 21 and then every 7 days thereafter.
After incubation at 37° C. in 5% CO2 for 40 hours (IFN-γ ELISPOT assays), cells were removed by washings with PBS-0.05% Tween 20 (PBS-T). Captured cytokine was detected at sites of its secretion by incubation for 4 hours with biotinylated mAb anti-hIFN-γ (7-B6-1; Mabtech) at 2 μg/ml in PBS-0.5% BSA. […] Spot numbers and spot sizes were automatically determined with the use of computer-assisted video image analysis.

For “HIV Pol476-484: negative control peptide (AGADRQGTV; UniProt P04585 476-484, looked up, fragment)”, the “recognition of polypeptide pulsed T2 cells by CTL generated against EGFR853-861” value (T2 cells) was “not”.

For ITDFGLARL [HER2861-869], the “HLA-A*0201 binding” value (HLA-A*0201) is listed as “binds” and the “cross-reactivity of CTL derived from the polypeptide” value (EGFR family) is listed as “demonstrated cross-reactivity”.

For panitumumab, the “change in IFN-γ spots on addition to CTLs (stimulated with EGFR853-861) and PCI-30 cells” value (PCI-30) was “increased”.
